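GI50: concentration for 50% inhibition of growth. At the TGI there is no net growth.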
What was measured:
Assay in all cases: NCI anticancer screen, dose series, 384-well format
CAKI-1 renal = system: CAKI-1 renal
RPMI-8226 leukemia = system: RPMI-8226 leukemia
HCC-2998 colon = system: HCC-2998 colon
OVCAR-5 ovarian = system: OVCAR-5 ovarian
EKVX NSCLC = system: EKVX NSCLC
KM12 colon = system: KM12 colon
UACC-257 melanoma = system: UACC-257 melanoma
NCI-H226 lung = system: NCI-H226 lung
SN12C renal = system: SN12C renal
COLO 205 colon = system: COLO 205 colon
M14 melanoma = system: M14 melanoma
CCRF-CEM leukemia = system: CCRF-CEM leukemia
A549 NSCLC = system: A549 NSCLC
A498 renal = system: A498 renal
TK-10 renal = system: TK-10 renal
HL-60(TB) leukemia = system: HL-60(TB) leukemia
SF-268 CNS = system: SF-268 CNS
SW-620 colon = system: SW-620 colon
HS 578T breast = system: HS 578T breast
NCI/ADR-RES ovarian = system: NCI/ADR-RES ovarian
MCF7 breast = system: MCF7 breast
SK-MEL-28 melanoma = system: SK-MEL-28 melanoma
LOX IMVI melanoma = system: LOX IMVI melanoma
SK-MEL-5 melanoma = system: SK-MEL-5 melanoma
OVCAR-3 ovarian = system: OVCAR-3 ovarian
NCI-H23 lung = system: NCI-H23 lung
SNB-75 CNS = system: SNB-75 CNS
MDA-MB-468 breast = system: MDA-MB-468 breast
NCI-H460 NSCLC = system: NCI-H460 NSCLC
T-47D breast = system: T-47D breast
K-562 leukemia = system: K-562 leukemia
786-0 renal = system: 786-0 renal
RXF 393 renal = system: RXF 393 renal
HCT-116 colon = system: HCT-116 colon
SF-539 CNS = system: SF-539 CNS
UACC-62 melanoma = system: UACC-62 melanoma
SNB-19 CNS = system: SNB-19 CNS
MDA-MB-435 melanoma = system: MDA-MB-435 melanoma
HOP-92 NSCLC = system: HOP-92 NSCLC
MOLT-4 leukemia = system: MOLT-4 leukemia
HCT-15 colon = system: HCT-15 colon
HT29 colon = system: HT29 colon
SK-MEL-2 melanoma = system: SK-MEL-2 melanoma
NCI-H522 lung = system: NCI-H522 lung
UO-31 renal = system: UO-31 renal
DU-145 prostate = system: DU-145 prostate
BT-549 breast = system: BT-549 breast

`CC(C)(O)C1CCC(Nc2ccc3ncc(-c4cccc(C(F)(F)F)c4)n3n2)CC1` (centres undefined) showed a GI50 (CAKI-1 renal) of 1490 nM, a TGI (CAKI-1 renal) of 3.39 µM and a GI50 (RPMI-8226 leukemia) of 190 nM. It also gave a TGI (RPMI-8226 leukemia) of 365 nM, a GI50 (HCC-2998 colon) of 1220 nM and a TGI (HCC-2998 colon) of 2750 nM. The GI50 (OVCAR-5 ovarian) was 1820 nM, the TGI (OVCAR-5 ovarian) was 6.51 µM and the GI50 (EKVX NSCLC) was 1670 nM. The TGI (EKVX NSCLC) was 5.66 µM, the GI50 (KM12 colon) was 51 nM and the TGI (KM12 colon) was 2130 nM. It also gave a GI50 (UACC-257 melanoma) of 1550 nM, a TGI (UACC-257 melanoma) of 3.08 µM and a GI50 (NCI-H226 lung) of 1000 nM. The TGI (NCI-H226 lung) was 2660 nM, the GI50 (SN12C renal) was 1480 nM and the TGI (SN12C renal) was 5 µM. It also gave a GI50 (COLO 205 colon) of 2470 nM, a TGI (COLO 205 colon) of 8.7 µM and a GI50 (M14 melanoma) of 798 nM. The TGI (M14 melanoma) was 2220 nM, the GI50 (CCRF-CEM leukemia) was 367 nM and the TGI (CCRF-CEM leukemia) was 1560 nM. The GI50 (A549 NSCLC) was 2100 nM, the TGI (A549 NSCLC) was 7.64 µM and the GI50 (A498 renal) was 1160 nM. The TGI (A498 renal) was 2590 nM, the GI50 (TK-10 renal) was 1390 nM and the TGI (TK-10 renal) was 6.84 µM. The GI50 (HL-60(TB) leukemia) was 641 nM, the TGI (HL-60(TB) leukemia) was 1880 nM and the GI50 (SF-268 CNS) was 1510 nM. For the same compound, the TGI (SF-268 CNS) was 4.44 µM, the GI50 (SW-620 colon) was 1810 nM and the TGI (SW-620 colon) was 4.15 µM. The GI50 (HS 578T breast) was 364 nM, the TGI (HS 578T breast) was 1660 nM and the GI50 (NCI/ADR-RES ovarian) was 1380 nM. The TGI (NCI/ADR-RES ovarian) was 3.3 µM, the GI50 (MCF7 breast) was 1490 nM and the TGI (MCF7 breast) was 3.12 µM. The GI50 (SK-MEL-28 melanoma) was 1370 nM, the TGI (SK-MEL-28 melanoma) was 2690 nM and the GI50 (LOX IMVI melanoma) was 1400 nM. It also gave a TGI (LOX IMVI melanoma) of 2780 nM, a GI50 (SK-MEL-5 melanoma) of 948 nM and a TGI (SK-MEL-5 melanoma) of 2320 nM. For the same compound, the GI50 (OVCAR-3 ovarian) was 1950 nM, the TGI (OVCAR-3 ovarian) was 6.19 µM and the GI50 (NCI-H23 lung) was 1460 nM. For the same compound, the TGI (NCI-H23 lung) was 3.3 µM, the GI50 (SNB-75 CNS) was 1450 nM and the TGI (SNB-75 CNS) was 4.14 µM. It also gave a GI50 (MDA-MB-468 breast) of 1090 nM, a TGI (MDA-MB-468 breast) of 2640 nM and a GI50 (NCI-H460 NSCLC) of 1130 nM. For the same compound, the TGI (NCI-H460 NSCLC) was 2530 nM, the GI50 (T-47D breast) was 540 nM and the TGI (T-47D breast) was 2120 nM. The GI50 (K-562 leukemia) was 891 nM, the TGI (K-562 leukemia) was 2210 nM and the GI50 ([…]-0 renal) was 554 nM. For the same compound, the TGI (786-0 renal) was 1900 nM, the GI50 (RXF 393 renal) was 202 nM and the TGI (RXF 393 renal) was 616 nM. The GI50 (HCT-116 colon) was 1700 nM, the TGI (HCT-116 colon) was 3.37 µM and the GI50 (SF-539 CNS) was 1020 nM. The TGI (SF-539 CNS) was 2330 nM, the GI50 (UACC-62 melanoma) was 1500 nM and the TGI (UACC-62 melanoma) was 2840 nM. The GI50 (SNB-19 CNS) was 1900 nM, the TGI (SNB-19 CNS) was 5.5 µM and the GI50 (MDA-MB-435 melanoma) was 1530 nM. The TGI (MDA-MB-435 melanoma) was 4.17 µM, the GI50 (HOP-92 NSCLC) was 670 nM and the TGI (HOP-92 NSCLC) was 3.13 µM. For the same compound, the GI50 (MOLT-4 leukemia) was 559 nM, the TGI (MOLT-4 leukemia) was 1860 nM and the GI50 (HCT-15 colon) was 1120 nM. It also gave a TGI (HCT-15 colon) of 2930 nM, a GI50 (HT29 colon) of 1310 nM and a TGI (HT29 colon) of 3.05 µM. For the same compound, the GI50 (SK-MEL-2 melanoma) was 1320 nM, the TGI (SK-MEL-2 melanoma) was 2620 nM and the GI50 (NCI-H522 lung) was 1030 nM. The TGI (NCI-H522 lung) was 2560 nM, the GI50 (UO-31 renal) was 2120 nM and the TGI (UO-31 renal) was 12.4 µM. It also gave a GI50 (DU-145 prostate) of 2830 nM, a TGI (DU-145 prostate) of 12.3 µM and a GI50 (BT-549 breast) of 1450 nM. The TGI (BT-549 breast) was 3.88 µM.
